Test results reported in ChEMBL document CHEMBL1128320 (J Med Chem, 1995).

How the values were obtained:
[1] = biological target: T1, Steroid 17-alpha-hydroxylase/17,20 lyase (Homo sapiens, UniProt P05093)
T1 sequence (P05093 whole entry): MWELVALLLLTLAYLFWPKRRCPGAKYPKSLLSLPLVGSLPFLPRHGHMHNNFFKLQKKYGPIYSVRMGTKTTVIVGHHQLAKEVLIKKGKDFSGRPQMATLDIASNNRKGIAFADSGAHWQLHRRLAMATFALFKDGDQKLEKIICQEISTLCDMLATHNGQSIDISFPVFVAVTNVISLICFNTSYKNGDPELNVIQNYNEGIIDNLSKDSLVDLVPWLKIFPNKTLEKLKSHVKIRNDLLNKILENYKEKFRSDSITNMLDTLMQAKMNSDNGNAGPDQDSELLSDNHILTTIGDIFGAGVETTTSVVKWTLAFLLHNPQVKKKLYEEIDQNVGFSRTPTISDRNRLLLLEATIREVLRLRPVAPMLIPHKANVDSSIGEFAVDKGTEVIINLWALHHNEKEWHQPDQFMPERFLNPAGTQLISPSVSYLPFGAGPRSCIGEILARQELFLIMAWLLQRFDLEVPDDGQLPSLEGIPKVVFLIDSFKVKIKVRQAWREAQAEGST

esterase = assay: in vitro; settings: rat, in vivo
Description: Hydrolysis rate by rat liver microsomal esterase

[2] = biological target: T1, Steroid 17-alpha-hydroxylase/17,20 lyase; remark: listed apart in the source
[3] = biological target: T2, Steroid 17-alpha-hydroxylase/17,20 lyase (Rattus norvegicus, UniProt P11715)
T2 sequence (P11715 whole entry): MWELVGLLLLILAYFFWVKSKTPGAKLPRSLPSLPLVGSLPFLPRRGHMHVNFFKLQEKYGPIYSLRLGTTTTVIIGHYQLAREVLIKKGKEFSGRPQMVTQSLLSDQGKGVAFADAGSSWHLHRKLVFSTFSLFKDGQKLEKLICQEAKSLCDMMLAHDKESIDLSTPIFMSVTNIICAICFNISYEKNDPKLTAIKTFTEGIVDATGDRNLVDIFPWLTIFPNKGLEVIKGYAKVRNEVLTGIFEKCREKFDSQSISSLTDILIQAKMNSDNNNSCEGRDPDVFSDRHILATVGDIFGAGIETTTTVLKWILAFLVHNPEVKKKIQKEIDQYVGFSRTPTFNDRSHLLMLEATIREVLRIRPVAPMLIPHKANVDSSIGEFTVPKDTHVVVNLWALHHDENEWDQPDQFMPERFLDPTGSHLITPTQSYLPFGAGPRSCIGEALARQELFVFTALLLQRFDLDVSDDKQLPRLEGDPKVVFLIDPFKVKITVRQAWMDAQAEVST

[4] = biological target: T2, Steroid 17-alpha-hydroxylase/17,20 lyase; remark: listed apart in the source

Row | Structure (SMILES) | IC50 [1] [nM] | half-life (esterase) [min] | IC50 [2] [nM] | IC50 [3] [nM] | IC50 [4] [nM]
1 | CC(C(=O)OC1CC2CC([C@@H]1C)C2(C)C)c1ccncc1 (stereo not given in full) | 6 | 100 | 19 | – | –
2 | C[C@@H]1C(OC(=O)C(C)(C)c2ccncc2)CC2CC1C2(C)C (stereo not given in full) | 10 | – | 26 | – | –
3 | C[C@@H]1C(OC(=O)Cc2ccncc2)CC2CC1C2(C)C (stereo not given in full) | 5 | 17.5 | 14 | 260 | 280
4 | C[C@@H]1C(OC(=O)Cc2ccccn2)CC2CC1C2(C)C (stereo not given in full) | > 1000 | – | > 1000 | – | –
5 | C[C@@H]1CCC2C(C)(C)C3CC21CC[C@@]3(C)OC(=O)Cc1ccncc1 (stereo not given in full) | 52 | – | 270 | – | –
6 | CC(C)(C(=O)OC12CC3CC(CC(C3)C1)C2)c1cccnc1 | 13 | – | 90 | – | –
7 | O=C(Cc1cccnc1)OC12CC3CC(CC(C3)C1)C2 | 130 | – | 930 | – | –
8 | CCC(CC)(C(=O)OC1CC2CC([C@@H]1C)C2(C)C)c1ccncc1 (stereo not given in full) | 35 | – | 140 | – | –
9 | CC(C(=O)OC12CC3CC(CC(C3)C1)C2)c1cccnc1 (stereo not given) | 35 | – | 220 | – | –
10 | CC1(OC(=O)Cc2cccnc2)C2CC3CC(C2)CC1C3 (stereo not given) | 320 | – | 1900 | – | –
11 | C[C@@H]1C(OC(=O)Cc2cccnc2)CC2CC1C2(C)C (stereo not given in full) | 88 | 16 | 260 | 460 | 520
12 | C[C@@H]1CCC2C(C)(C)C3CC21CC[C@@]3(C)OC(=O)Cc1cccnc1 (stereo not given in full) | 38 | – | 230 | – | –
13 | C[C@@H]1C(OC(=O)C(C)(C)c2cccnc2)CC2CC1C2(C)C (stereo not given in full) | 15 | – | 29 | 47 | 52
14 | CC(C)(C(=O)OC1(C)C2CC3CC(C2)CC1C3)c1cccnc1 (stereo not given) | 13 | – | 75 | – | –
15 | CC(C(=O)OC1CC2CC([C@@H]1C)C2(C)C)c1cccnc1 (stereo not given in full) | 14 | 50 | 82 | – | –
16 | CCC(C(=O)OC1CC2CC([C@@H]1C)C2(C)C)c1ccncc1 (stereo not given in full) | 9 | 88 | 34 | – | –
17 | C[C@@H]1CCC2C(C)(C)C3CC21CC[C@@]3(C)OC(=O)C(C)(C)c1cccnc1 (stereo not given in full) | 670 | – | 4000 | – | –
